Consider seven compounds from PMC6072100, “Exploring the links between peptoid antibacterial activity and toxicity” (MedChemComm, 2017).

Series [1] has as its system NIH 3T3 murine fibroblasts. Also on record: method as in PMID 26849681. To be noted: in vitro mammalian assays; cited from earlier work.
Details of series [2]: method as in PMID 18287037. The settings on record: cited from earlier work.
Series [3] deals with E. coli, P. aeruginosa, S. aureus and S. epidermidis. It is filed as cell-based. The method in brief: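 Read-out was absorbance after 16 h shaking incubation at 37 °C. Inoculum: Iso-sensitest broth culture at A650nm 0.07, diluted ten-fold; peptoids tested at final 2–100 µM in twofold steps. Triplicate wells.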

Square brackets hold non-standard residues; d marks the D form. Peptide text beside a SMILES is read from it. Gly(N-(CH2)6NH2) = NCCCCCCNCC(=O)O; Gly(N-2-aminoethyl) = NCCNCC(=O)O; Nspe = C[C@H](NCC(=O)O)c1ccccc1; Nphe = O=C(O)CNCc1ccccc1; Nlys = NCCCCNCC(=O)O

Regarding `C[C@@H](c1ccccc1)N(CC(N)=O)C(=O)CN(C(=O)CN(CCCCN)C(=O)CN(C(=O)CN(C(=O)CN(CCCCN)C(=O)CN(C(=O)CN(C(=O)CN(CCCCN)C(=O)CN(C(=O)CN(C(=O)CNCCCCN)[C@@H](C)c1ccccc1)[C@@H](C)c1ccccc1)[C@@H](C)c1ccccc1)[C@@H](C)c1ccccc1)[C@@H](C)c1ccccc1)[C@@H](C)c1ccccc1)[C@@H](C)c1ccccc1` [Peptoid 13, (NLysNspeNspe)4] (H-[Nlys][Nspe][Nspe][Nlys][Nspe][Nspe][Nlys][Nspe][Nspe][Nlys][Nspe][Nspe]-NH2), the “observed toxicity against NIH 3T3 murine fibroblasts” value in series [1] is 5.1 µM. Moreover, the “50% haemolytic dose (HD50)” value in series [2] was 100 µM.

As for `C[C@@H](c1ccccc1)N(CC(N)=O)C(=O)CN(C(=O)CN(CCN)C(=O)CN(C(=O)CN(C(=O)CNCCN)[C@@H](C)c1ccccc1)[C@@H](C)c1ccccc1)[C@@H](C)c1ccccc1` [Peptoid 18, (NaeNspeNspe)2], in series [3], the “MICs against the bacteria tested” value came out at 100 µM. As to `C[C@@H](c1ccccc1)N(CC(N)=O)C(=O)CN(C(=O)CN(CCCCCCN)C(=O)CN(C(=O)CN(C(=O)CNCCCCCCN)[C@@H](C)c1ccccc1)[C@@H](C)c1ccccc1)[C@@H](C)c1ccccc1` [Peptoid 12, (NahNspeNspe)2], in series [3], the “MICs against the bacteria tested” value stood at 100 µM. In the case of `NCCCCCCNCC(=O)N(CC(=O)N(CC(=O)N(CCCCCCN)CC(=O)N(CC(=O)N(CC(N)=O)Cc1ccccc1)Cc1ccccc1)Cc1ccccc1)Cc1ccccc1` [Peptoid 3, (NahNpheNphe)2] (H-[Gly(N-(CH2)6NH2)][Nphe][Nphe][Gly(N-(CH2)6NH2)][Nphe][Nphe]-NH2), in series [3], the “MICs against the bacteria tested” value was found to be 100 µM. On the same count and under the same terms, the figure for `NCCCCNCC(=O)N(CC(=O)N(CC(=O)N(CCCCN)CC(=O)N(CC(=O)N(CC(N)=O)Cc1ccccc1)Cc1ccccc1)Cc1ccccc1)Cc1ccccc1` [Peptoid 6, (NLysNpheNphe)2] (H-[Nlys][Nphe][Nphe][Nlys][Nphe][Nphe]-NH2) is 100 µM; for `NCCNCC(=O)N(CC(=O)N(CC(=O)N(CCN)CC(=O)N(CC(=O)N(CC(N)=O)Cc1ccccc1)Cc1ccccc1)Cc1ccccc1)Cc1ccccc1` [Peptoid 9, (NaeNpheNphe)2] (H-[Gly(N-2-aminoethyl)][Nphe][Nphe][Gly(N-2-aminoethyl)][Nphe][Nphe]-NH2) it is 100 µM. For `C[C@@H](c1ccccc1)N(CC(N)=O)C(=O)CN(C(=O)CN(CCCCN)C(=O)CN(C(=O)CN(C(=O)CNCCCCN)[C@@H](C)c1ccccc1)[C@@H](C)c1ccccc1)[C@@H](C)c1ccccc1` [Peptoid 15, (NLysNspeNspe)2] (H-[Nlys][Nspe][Nspe][Nlys][Nspe][Nspe]-NH2), the “MICs against the bacteria tested” value in series [3] stood at 100 µM.
